In US4548943A, “Antiinflammatory, analgesic, or anti-primary dysmenorrheal arylmethylene- and arylmethylindenoimidazoles” (E. I. Du Pont de Nemours and Company, priority 1984, dated 1985):
Like-named read-outs stand apart in the source and are kept apart here.

How the values were obtained:
[1] = test system: phenylquinone writhing (mice); experiment: Phenylquinone writhing test; format: in vivo, mouse (female white); details: for ED50: Mus musculus, po, read-out: PQW ED50; for PQW ED50: oral
Protocol: Phenylquinone Writhing Test
A standard procedure for detecting and comparing the analgesic activity of compounds in this series for which there is a good correlation with human efficacy is the standard phenylquinone writhing test modified from Siegmund, et al., Proc. Soc. Exp. Biol. Med., 95, 729 (1957). A test compound suspended in 1% methylcellulose was given orally to fasted (17-21 hours) female white mice, 5-20 animals per double blind test. Aqueous (0.01% phenyl-p-benzoquinone)phenylquinone, 0.20 ml per mouse, was injected intraperitoneally 6 minutes before observations were begun. […] Rev., 11, 115-145 (1947). Data for some of the compounds is summarized in Table 4 together with data for some standard analgetic antiinflammatory drugs.

[2] = test system: adjuvant-induced arthritis in rats; experiment: Established adjuvant-induced arthritis in rats; format: in vivo, rat (male Charles River Lewis); details: for Adjuvant Arthritis, decrease in paw volume from controls at dose indicated: @ 9 mg/kg; for ED50: Rattus norvegicus, read-out: Adjuvant Arthritis ED50
[3] = target: T1, bovine seminal vesicle prostaglandin synthetase (PGS) (Bos taurus, UniProt O62664); experiment: Prostaglandin synthetase inhibition assay; format: biochemical; details: 14C-arachidonic acid 0.02 mM, pH 8.5, 10 minutes
T1 construct: purchased Miles; host or cells: bovine seminal vesicle
T1 sequence (O62664 25-600): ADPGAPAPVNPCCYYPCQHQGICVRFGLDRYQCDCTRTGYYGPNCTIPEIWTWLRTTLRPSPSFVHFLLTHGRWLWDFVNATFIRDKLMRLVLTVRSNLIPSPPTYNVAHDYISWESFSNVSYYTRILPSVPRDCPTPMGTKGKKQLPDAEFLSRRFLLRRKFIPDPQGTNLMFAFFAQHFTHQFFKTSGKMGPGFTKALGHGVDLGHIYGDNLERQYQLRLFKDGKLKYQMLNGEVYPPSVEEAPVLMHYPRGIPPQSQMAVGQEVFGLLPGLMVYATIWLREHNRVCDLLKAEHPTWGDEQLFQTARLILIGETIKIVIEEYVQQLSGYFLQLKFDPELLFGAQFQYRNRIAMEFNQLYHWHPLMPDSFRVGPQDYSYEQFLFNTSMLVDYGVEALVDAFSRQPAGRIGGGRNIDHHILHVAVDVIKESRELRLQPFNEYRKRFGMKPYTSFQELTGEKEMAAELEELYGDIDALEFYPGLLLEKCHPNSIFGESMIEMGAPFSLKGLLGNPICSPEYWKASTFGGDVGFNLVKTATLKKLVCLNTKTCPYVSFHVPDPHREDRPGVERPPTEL
Protocol: Prostaglandin Synthetase Inhibition Assay
The resulting labelled prostaglandins were isolated on small columns of Bio-Sil® A silica gel. The reaction was buffered with 0.13M Tris.Cl (pH 8.5) and included 0.6 mM epinephrine, 2.1 mM reduced glutathione, and 0.09 mM EDTA, which favored PGE2 as the primary product [C. […] Miles bovine seminal vesicle prostaglandin synthetase (20 μg), inhibitor, cofactor, and buffer were mixed and preincubated for two minutes at 37° C. The substrate was added to initiate the reaction which was run for 10 minutes. The reaction was stopped by freezing in a slurry of dry ice/ethanol. All reactions were run in duplicate. Inhibitors were bead-milled overnight and diluted in reaction buffer (0.2M Tris.Cl, pH 8.5). Inhibition was calculated by the following formula: [formula]

[4] = fasted female white mice, phenylquinone i.p.
[5] = oral, 7 daily doses, ED50 % decrease from control paw volume, uninjected left hind paw

Structure (SMILES) | IC50 [3] [nM] | ED50 [1] [mg/kg] | Adjuvant Arthritis, decrease in paw volume from controls at dose indicated ([2]; oral, 7 daily doses) [%] | ED50 [1, 4] [mg/kg] | ED50 [2, 5] [mg/kg] | PQW ED50 [1, 4] [mg/kg] | ED50 ([2]; po) [mg/kg]
CC(=O)Oc1ccccc1C(=O)O [Aspirin, aspirin, reference compound] | – | 135 | – | – | – | – | –
FC(F)(F)Sc1nc2c([nH]1)/C(=C/c1ccccc1)c1ccccc1-2 [Example 2] | < 75000 | – | 12 | 35 | – | – | –
O=S(=O)(c1nc2c([nH]1)/C(=C\c1ccccc1)c1ccccc1-2)C(F)(F)F [Example 3] | 930 | – | 37 | > 81 | – | – | –
COc1ccc(CC2c3ccccc3-c3nc(S(=O)(=O)C(F)(F)F)[nH]c32)cc1 (stereo not drawn) [Example 4, 1,8-DIHYDRO(OR 3,8-DIHYDRO)-2-(TRIFLUOROMETHYLSULFONYL)-8-[(4-METHOXYPHENYL)METHYL]INDENO[1,2-d]-IMIDAZOLE] | 1200 | – | – | – | – | – | –
O=S(=O)(c1nc2c([nH]1)/C(=C/c1ccccc1)c1ccccc1-2)C(F)(F)F [Example 5, 1,8-Dihydro(or 3,8-dihydro)-2-(trifluoromethylsulfonyl)-8-(phenylmethylene)indeno[1,2-d]imidazole, E isomer] | 23 | – | – | 1 | 5.3 | – | –
COc1ccc(C=C2c3ccccc3-c3nc(SC(F)(F)F)[nH]c32)cc1 [Example 7] | 580 | – | 39 | > 108 | – | – | –
CC(C)Cc1ccc(C(C)C(=O)O)cc1 (stereo not drawn) [Ibuprofen, ibuprofen, reference compound] | – | – | – | 10 | 80 | – | –
COc1ccc2c(c1)c(CC(=O)O)c(C)n2C(=O)c1ccc(Cl)cc1 [Indomethacin, indomethacin, reference compound] | – | 0.35 | – | – | – | – | 0.25

Further lines, with some results ahead:

IC50 [3] [nM] | Structure (SMILES) | ED50 [1] [mg/kg] | Adjuvant Arthritis, decrease in paw volume from controls at dose indicated ([2]; oral, 7 daily doses) [%] | ED50 [1, 4] [mg/kg] | ED50 [2, 5] [mg/kg] | PQW ED50 [1, 4] [mg/kg] | ED50 ([2]; po) [mg/kg]
310 | COc1ccc(C=C2c3ccccc3-c3nc(S(=O)(=O)C(F)(F)F)[nH]c32)cc1 [Example 8, 1,8-dihydro(or 3,8-dihydro)-2-(trifluoromethylsulfonyl)-8-[(4-methoxyphenyl)methylene]-indeno[1,2-d]imidazole, Z isomer] | – | 5 | – | – | > 36 | –
20 | COc1ccc(C=C2c3ccccc3-c3nc(S(=O)(=O)C(F)(F)F)[nH]c32)cc1 [Example 9, 1,8-Dihydro(or 3,8-dihydro)-2-(trifluoromethylsulfonyl)-8-[(4-methoxyphenyl)methylene]indeno[1,2-d]imidazole, E isomer] | – | – | – | 1.95 | 1.44 | –
2700 | Fc1ccc(C=C2c3ccccc3-c3nc(SC(F)(F)F)[nH]c32)cc1 [Example 11] | – | 39 | 21 | – | – | –
480 | [O-][S+](c1nc2c([nH]1)C(=Cc1ccc(F)cc1)c1ccccc1-2)C(F)(F)F (stereo not drawn) [Example 12, 1,8-Dihydro(or 3,8-dihydro)-2-(trifluoromethylsulfinyl)-8-[(4-fluorophenyl)methylene]indeno[1,2-d]imidazole, E isomer] | – | 48 | 0.76 | – | – | –
420 | O=S(=O)(c1nc2c([nH]1)C(=Cc1ccc(F)cc1)c1ccccc1-2)C(F)(F)F [Example 13] | – | – | 53.6 | 9.8 | – | –
270000 | CCCCC1C(=O)N(c2ccccc2)N(c2ccccc2)C1=O [Phenylbutazone, phenylbutazone, reference compound] | – | – | 80 | 10 | – | –
